ChEMBL document CHEMBL1144959, “Nonpeptide RGD antagonists: a novel class of mimetics, the 5,8-disubstituted 1-azabicyclo[5.2.0]nonan-2-one lactam” (Bioorg Med Chem Lett, 2003)

The compounds below were run against Integrin alpha-5/beta-1 (Homo sapiens, UniProt P05556+P08648) (assay: Inhibition of fibronectin (GST-3Fn8-11) binding to recombinant soluble mini integrin alpha5-beta1).
Format: protein-complex assay

Sequence of Integrin alpha-5/beta-1 (P05556 21-798 limits assumed): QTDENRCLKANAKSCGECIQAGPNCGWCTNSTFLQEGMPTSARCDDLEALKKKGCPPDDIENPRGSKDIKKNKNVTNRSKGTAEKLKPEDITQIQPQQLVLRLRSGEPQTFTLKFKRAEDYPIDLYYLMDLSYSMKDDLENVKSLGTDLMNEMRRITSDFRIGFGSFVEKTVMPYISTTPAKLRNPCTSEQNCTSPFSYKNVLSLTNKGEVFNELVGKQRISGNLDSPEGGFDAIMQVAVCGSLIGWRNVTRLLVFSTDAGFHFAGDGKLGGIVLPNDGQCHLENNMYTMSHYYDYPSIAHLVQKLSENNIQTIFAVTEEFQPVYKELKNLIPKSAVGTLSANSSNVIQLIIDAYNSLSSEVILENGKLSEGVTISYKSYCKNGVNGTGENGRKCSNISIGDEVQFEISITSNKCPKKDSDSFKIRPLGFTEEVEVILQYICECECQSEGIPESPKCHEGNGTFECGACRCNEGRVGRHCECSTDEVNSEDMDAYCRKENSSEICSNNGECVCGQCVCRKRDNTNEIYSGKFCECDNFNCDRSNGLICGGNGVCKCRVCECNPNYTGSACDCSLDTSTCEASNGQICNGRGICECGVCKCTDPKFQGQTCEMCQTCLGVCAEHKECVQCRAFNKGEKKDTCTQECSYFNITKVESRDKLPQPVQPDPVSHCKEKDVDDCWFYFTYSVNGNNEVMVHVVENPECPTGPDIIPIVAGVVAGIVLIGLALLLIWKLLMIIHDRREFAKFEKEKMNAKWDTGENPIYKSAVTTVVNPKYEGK
Sequence of Integrin alpha-5/beta-1 (P08648 42-894 limits assumed): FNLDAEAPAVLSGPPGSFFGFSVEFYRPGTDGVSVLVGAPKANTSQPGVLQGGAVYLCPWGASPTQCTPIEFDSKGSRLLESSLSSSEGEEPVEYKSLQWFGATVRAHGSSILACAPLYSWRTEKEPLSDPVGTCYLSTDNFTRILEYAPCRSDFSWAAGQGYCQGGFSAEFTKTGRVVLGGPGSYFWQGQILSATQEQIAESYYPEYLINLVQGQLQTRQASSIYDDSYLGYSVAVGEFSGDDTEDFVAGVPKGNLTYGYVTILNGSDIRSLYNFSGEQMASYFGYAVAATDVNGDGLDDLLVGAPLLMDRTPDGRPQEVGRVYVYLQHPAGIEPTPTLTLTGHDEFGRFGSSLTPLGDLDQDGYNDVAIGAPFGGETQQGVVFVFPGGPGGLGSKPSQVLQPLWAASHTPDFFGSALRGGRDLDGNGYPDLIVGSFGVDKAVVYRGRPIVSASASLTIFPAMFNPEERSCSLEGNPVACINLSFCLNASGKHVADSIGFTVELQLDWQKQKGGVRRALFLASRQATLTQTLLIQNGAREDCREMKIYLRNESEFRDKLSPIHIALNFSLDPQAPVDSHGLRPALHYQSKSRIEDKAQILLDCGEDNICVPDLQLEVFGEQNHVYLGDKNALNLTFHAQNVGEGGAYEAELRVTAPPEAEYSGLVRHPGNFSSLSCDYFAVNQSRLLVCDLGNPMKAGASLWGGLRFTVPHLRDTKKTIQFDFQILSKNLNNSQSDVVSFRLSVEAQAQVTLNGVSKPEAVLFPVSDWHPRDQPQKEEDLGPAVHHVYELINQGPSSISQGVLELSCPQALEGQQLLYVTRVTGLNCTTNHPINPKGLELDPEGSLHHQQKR
Sequence of Integrin alpha-5/beta-1 (P08648 895-1049 limits assumed): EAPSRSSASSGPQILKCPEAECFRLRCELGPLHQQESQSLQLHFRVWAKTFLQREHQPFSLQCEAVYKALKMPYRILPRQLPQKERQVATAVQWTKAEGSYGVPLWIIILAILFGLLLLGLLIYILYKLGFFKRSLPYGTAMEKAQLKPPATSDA

| IC50 [µM] | SMILES |
| --- | --- |
| 2.2 | NC(N)=NCCC[C@H](N)C(=O)NCC(=O)N[C@@H](CC(=O)O)C(=O)N[C@@H](CO)C(=O)O |
| 3100 | N=C(N)NCCCNC(=O)[C@@H]1CCC(=O)N2C[C@H](CCC(=O)O)[C@H]2C1 |
| 1300 | N=C(N)NCCCNC(=O)C1CCC(=O)N2CC(CCC(=O)O)C2C1 (centres undefined) |
| 65 | N=C(N)NCCCNC(=O)[C@H]1CCC(=O)N2C[C@H](CCC(=O)O)[C@H]2C1 |
